Results published in US20230057979A1, “MEDICINAL COMPOSITIONS FOR CARBON DIOXIDE BASED METERED DOSE INHALERS” (KINDEVA DRUG DELIVERY L.P., priority 2020, published 2023).
Values belong to the molecule of their own block, whether it stands above or below them.

Tests used:
[1] = Beclomethasone Dipropionate (BDP) Aerodynamic Particle Size Distribution (APSD) by NGI; assay type: physicochemical; conditions: Example 6 formulation, NGI 30 L/min, five actuations, average of three canisters
Experimental: APSD was determined using a Next Generation Impactor (NGI Model 170, Copley Scientific Limited UK) at a flow rate of 30±0.5 L/min drawn using a high-capacity pump (HCP5, Copley Scientific Limited, UK) the flow rate determined using a digital flow meter (Model 4043, TSI Instruments). The filter stage was fitted with a Whatman grade 934-AH glass microfiber filter. Units were tested at the start of life using a 3M Mark 6 actuator (3M, Loughborough, UK) with an exit orifice diameter of 0.25 mm and a jet length of 0.8 mm. Prior to testing, the inhaler was actuated five times to ensure the valve was primed after which the valve stem was cleaned and dried. The inhaler was then attached to the NGI with the use of an appropriate coupler and actuated five times into the NGI. The BDP was recovered from each component using methanol (HPLC grade, Thermo Fisher Scientific, Inc., Waltham, Mass.) using a volume of 10 mL for the stem/can, 30 mL for the throat/coupler, 5 mL for cups 1 to 4 and 20 mL for all other components. Recovery was performed using a rocker station (Gentle Rocker 4515, Copley Scientific Limited UK). Samples were assayed by reversed phase isocratic liquid chromatography using UV detection (Acquity H-Class UPLC, Waters Limited) with the parameter settings presented in Table 1. [table]

[2] = stated in description, cited from earlier work
[3] = Salbutamol Sulphate Aerodynamic Particle Size Distribution (APSD) by NGI; assay type: physicochemical; conditions: Example 7 formulation, NGI 30 L/min, six actuations, average of three canisters
Experimental: APSD was determined using a Next Generation Impactor as described in the BDP APSD test method. Prior to testing, the inhaler was actuated five times to ensure the valve was primed after which the valve stem was cleaned and dried. The inhaler was then attached to the NGI with the use of an appropriate coupler and actuated six times into the NGI. The Salbutamol sulphate was recovered from each component using a solution of acetonitrile/0.1% phosphoric acid in water (9:1 v/v) using a volume of 20 mL for the throat/coupler and 10 mL for all other components. Recovery was performed using a rocker station (Gentle Rocker, Copley Scientific Limited UK). Samples were assayed by reversed phase gradient liquid chromatography using UV detection (HP1100, Agilent Technologies UK Limited), with the parameter settings in Table 2 and Table 3. [table] [table]

BDP deposited: Actuator [1]: 10.8 µg
BDP deposited: Cup 1 [1]: 0.3 µg
BDP deposited: Cup 2 [1]: 0.1 µg
BDP deposited: Cup 3 [1]: 0.1 µg
BDP deposited: Cup 4 [1]: 0.8 µg
BDP deposited: Cup 5 [1]: 4.3 µg
BDP deposited: Cup 6 [1]: 7.4 µg
BDP deposited: Cup 7 [1]: 4.7 µg
BDP deposited: Filter [1]: 1.6 µg
BDP deposited: MOC [1]: 5.9 µg
BDP deposited: Stem [1]: 3.6 µg
BDP deposited: Throat/Coupler [1]: 59.0 µg
Molecule: CCC(=O)OCC(=O)[C@@]1(OC(=O)CC)[C@@H](C)C[C@H]2[C@@H]3CCC4=CC(=O)C=C[C@]4(C)[C@@]3(Cl)[C@@H](O)C[C@@]21C [BDP, beclomethasone dipropionate]

Molecule: O=C=O [carbon dioxide]
vapor pressure at about 20° C. ([2]; pure liquid propellant, about 20 °C): about 57 bar
vapor pressure at about 40° C. ([2]; pure liquid propellant, about 40 °C): about 80 bar
liquid to supercritical phase transition temperature or critical point temperature ([2]; pure propellant): about 31 °C

SS deposited: Actuator [3]: 7.9 µg
SS deposited: Cup 1 [3]: 0.20 µg
SS deposited: Cup 2 [3]: 0.07 µg
SS deposited: Cup 3 [3]: 0.45 µg
SS deposited: Cup 4 [3]: 2.5 µg
SS deposited: Cup 5 [3]: 3.7 µg
SS deposited: Cup 6 [3]: 2.1 µg
SS deposited: Cup 7 [3]: 0.60 µg
SS deposited: Filter [3]: 0.05 µg
SS deposited: MOC [3]: 0.29 µg
SS deposited: Stem [3]: 1.4 µg
SS deposited: Throat/Coupler [3]: 54.2 µg
Molecule: salbutamol sulphate [SS]
